Laboratory results published in patent US20230295149A1, “MONOBACTAM COMPOUNDS, THEIR PREPARATION AND USE AS ANTIBACTERIAL AGENTS” (NINGXIA ACADEMY OF AGRICULTURE AND FORESTRY SCIENCES, priority 2020, published 2023).

How the values were obtained:
Test in all cases: MIC determination, broth microdilution
Type in all cases: cell-based
A. baumannii 19606 = conditions: Acinetobacter baumannii, 37° C., 18-24 hours, read-out: Strain8 MIC
Procedure: (§1) Compounds of this invention were tested for antimicrobial activity by determining minimum inhibitory concentrations (MICs, in μg/mL) using the broth microdilution method according to the guidelines of the Clinical Laboratories and Standards Institute (“Methods for Dilution Antimicrobial Susceptibility Tests for Bacteria that Grow Aerobically”, Approved standard, 7th ed., Clinical and Laboratory Standards Institute (CLSI) Document M7-A8, Wayne, Pa., USA, 2009.). Test compounds were dissolved in DMSO. The compounds were then diluted in microbial growth medium (Mueller Hinton Broth II, cation adjusted) resulting in a final concentration range of 0.063-64 μg/mL in serial two-fold dilution. In all cases the final DMSO concentration was less than 0.5%. Bacteria were added to 96-well microtitre plates containing the two-fold dilutions of the compounds; the final cell density was approximately 5×10^5 colony forming units/mL (CFU/mL). Plates were incubated at 37° C. for 18-24 hours and read visually. The MIC, i.e. the lowest concentration of the test compound that inhibited visible growth of the bacteria, was recorded. The same assay conditions were used when the compounds of this invention were tested in combination with—lactamase inhibitors. While the compounds of this invention were serially diluted as described above, a constant concentration of the inhibitor of 4 mg/L was used. Bacterial strains that were used to evaluate the antimicrobial activity using the MIC determination included but were not limited to E. coli clinical isolate, E. coli 8739, K. pneumoniae clinical isolate, K. pneumoniae 700603, E. cloacae clinical isolate, E. cloacae 700323, A. baumannii clinical isolate, A. baumannii 19606, P. aeruginosa clinical isolate, P. aeruginosa 9027.

[1] = tested on: A. baumannii clinical isolate; conditions: Acinetobacter baumannii, 37° C., 18-24 hours, read-out: Strain 7 MIC
Procedure: as §1

E. cloacae 700323 = conditions: Enterobacter cloacae, 37° C., 18-24 hours, read-out: Strain 6 MIC
Procedure: as §1

[2] = tested on: E. cloacae clinical isolate; conditions: Enterobacter cloacae, 37° C., 18-24 hours, read-out: Strain5 MIC
Procedure: as §1

E. coli 8739 = conditions: Escherichia coli, 37° C., 18-24 hours, read-out: Strain 2 MIC
Procedure: as §1

E. coli clinical isolate = conditions: Escherichia coli, 37° C., 18-24 hours, read-out: Strain 1 MIC
Procedure: as §1

K. pneumoniae 700603 = conditions: Klebsiella pneumoniae, 37° C., 18-24 hours, read-out: Strain 4 MIC
Procedure: as §1

[3] = tested on: K. pneumoniae clinical isolate; conditions: Klebsiella pneumoniae, 37° C., 18-24 hours, read-out: Strain 3 MIC
Procedure: as §1

P. aeruginosa 9027 = conditions: Pseudomonas aeruginosa, 37° C., 18-24 hours, read-out: Strain 10 MIC
Procedure: as §1

[4] = tested on: P. aeruginosa clinical isolate; conditions: Pseudomonas aeruginosa, 37° C., 18-24 hours, read-out: Strain 9 MIC
Procedure: as §1

SMILES	MIC (A. baumannii 19606) [µg/mL]	MIC [1] [µg/mL]	MIC (E. cloacae 700323) [µg/mL]	MIC [2] [µg/mL]	MIC (E. coli 8739) [µg/mL]	MIC (E. coli clinical isolate) [µg/mL]	MIC (K. pneumoniae 700603) [µg/mL]	MIC [3] [µg/mL]	MIC (P. aeruginosa 9027) [µg/mL]	MIC [4] [µg/mL]
C[C@H]1[C@H](NC(=O)/C(=N\OC(C)(C)C(=O)O)c2csc(N)n2)C(=O)N1S(=O)(=O)O [AZT, Aztreonam, reference compound]	32	> 64	> 64	> 64	16	> 64	64	64	16	> 64
CC(C)(O/N=C(\C(=O)N[C@@H]1C(=O)N2C(C(=O)[O-])=C(C[n+]3ccccc3)CS[C@H]12)c1csc(N)n1)C(=O)O [CAZ, Ceftazidime, reference compound]	> 64	> 64	> 64	> 64	> 64	> 64	> 64	> 64	> 64	> 64
CC1(C)[C@H](NC(=O)/C(=N\O[C@@H](COc2ccc(C(=N)NC3CCNCC3)cc2)C(=O)O)c2nc(N)sc2Cl)C(=O)N1OS(=O)(=O)O [Example 1, (S)-2-((((Z)-1-(2-Amino-5-chlorothiazol-4-yl)-2-(((S)-2,2-dimethyl-4-oxo-1-(sulfooxy)azetidin-3-yl)amino)-2-oxoethylidene)amino)oxy)-3-(4-(N-(piperidin-4-yl)carbamimidoyl)phenoxy)propanoic acid]	8	16	8	8	1	8	8	4	2	2
CC1(C)[C@H](NC(=O)/C(=N\O[C@@H](COc2ccc(C(=N)NC3CCNCC3)cc2)C(=O)O)c2nsc(N)n2)C(=O)N1OS(=O)(=O)O [Example 2, (S)-2-((((Z)-1-(5-Amino-1,2,4-thiadiazol-3-yl)-2-(((S)-2,2-dimethyl-4-oxo-1-(sulfooxy)azetidin-3-yl)amino)-2-oxoethylidene)amino)oxy)-3-(4-(N-(piperidin-4-yl)carbamimidoyl)phenoxy)propanoic acid]	32	8	64	8	0.125	0.5	64	16	1	1
CC1(C)[C@H](NC(=O)/C(=N\O[C@@H](COc2ccc(C(=N)N[C@@H]3CCCNC3)cc2)C(=O)O)c2nc(N)sc2Cl)C(=O)N1OS(=O)(=O)O [Example 3, (S)-2-((((Z)-1-(2-Amino-5-chlorothiazol-4-yl)-2-(((S)-2,2-dimethyl-4-oxo-1-(sulfooxy)azetidin-3-yl)amino)-2-oxoethylidene)amino)oxy)-3-(4-(N—((R)-piperidin-3-yl)carbamimidoyl)phenoxy)propanoic acid]	8	16	8	8	0.5	2	8	2	1	4
CC1(C)[C@H](NC(=O)/C(=N\O[C@@H](COc2ccc(C(=N)N[C@@H]3CCCNC3)cc2)C(=O)O)c2nsc(N)n2)C(=O)N1OS(=O)(=O)O [Example 4, (S)-2-((((Z)-1-(5-Amino-1,2,4-thiadiazol-3-yl)-2-(((S)-2,2-dimethyl-4-oxo-1-(sulfooxy)azetidin-3-yl)amino)-2-oxoethylidene)amino)oxy)-3-(4-(N—((R)-piperidin-3-yl)carbamimidoyl)phenoxy)propanoic acid]	16	8	64	16	0.25	0.25	64	8	1	2
CC1(C)[C@H](NC(=O)/C(=N\O[C@@H](COc2ccc(C(=N)N[C@H]3CCNC3)cc2)C(=O)O)c2nc(N)sc2Cl)C(=O)N1OS(=O)(=O)O [Example 5, (S)-2-((((Z)-1-(2-Amino-5-chlorothiazol-4-yl)-2-(((S)-2,2-dimethyl-4-oxo-1-(sulfooxy)azetidin-3-yl)amino)-2-oxoethylidene)amino)oxy)-3-(4-(N—((S)-pyrrolidin-3-yl)carbamimidoyl)phenoxy)propanoic acid]	4	8	4	2	0.25	0.25	4	1	0.5	1
CC1(C)[C@H](NC(=O)/C(=N\O[C@@H](COc2ccc(C(=N)N[C@H]3CCNC3)cc2)C(=O)O)c2nsc(N)n2)C(=O)N1OS(=O)(=O)O [Example 6, (S)-2-((((Z)-1-(5-Amino-1,2,4-thiadiazol-3-yl)-2-(((S)-2,2-dimethyl-4-oxo-1-(sulfooxy)azetidin-3-yl)amino)-2-oxoethylidene)amino)oxy)-3-(4-(N—((S)-pyrrolidin-3-yl)carbamimidoyl)phenoxy)propanoic acid]	16	4	32	4	0.125	0.5	64	1	0.5	2
CC1(C)[C@H](NC(=O)/C(=N\O[C@@H](COc2ccc(C(=N)NC3CNC3)cc2)C(=O)O)c2nsc(N)n2)C(=O)N1OS(=O)(=O)O [Example 7, (S)-2-((((Z)-1-(5-Amino-1,2,4-thiadiazol-3-yl)-2-(((S)-2,2-dimethyl-4-oxo-1-(sulfooxy)azetidin-3-yl)amino)-2-oxoethylidene)amino)oxy)-3-(4-(N-(azetidin-3-yl)carbamimidoyl)phenoxy)propanoic acid]	8	4	16	8	0.25	0.125	32	2	0.5	0.5
CC1(C)[C@H](NC(=O)/C(=N\O[C@@H](COc2ccc(C(=N)NC3CNC3)cc2)C(=O)O)c2nc(N)sc2Cl)C(=O)N1OS(=O)(=O)O [Example 8, (S)-2-((((Z)-1-(2-Amino-5-chlorothiazol-4-yl)-2-(((S)-2,2-dimethyl-4-oxo-1-(sulfooxy)azetidin-3-yl)amino)-2-oxoethylidene)amino)oxy)-3-(4-(N-(azetidin-3-yl)carbamimidoyl)phenoxy)propanoic acid]	4	8	8	8	0.25	0.5	8	8	1	1
C[C@H]1[C@H](NC(=O)/C(=N\O[C@@H](COc2ccc(C(=N)N[C@H]3CCCNC3)cc2)C(=O)O)c2nc(N)sc2Cl)C(=O)N1S(=O)(=O)O [Example 9, (S)-2-((((Z)-1-(2-Amino-5-chlorothiazol-4-yl)-2-(((2S,3S)-2-methyl-4-oxo-1-sulfoazetidin-3-yl)amino)-2-oxoethylidene)amino)oxy)-3-(4-(N—((S)-piperidin-3-yl)carbamimidoyl)phenoxy)propanoic acid]	16	32	32	64	0.5	1	64	32	1	16
CC1(C)[C@H](NC(=O)/C(=N\O[C@@H](COc2ccc(C(=N)N[C@@H]3CCNC3)cc2)C(=O)O)c2nc(N)sc2Cl)C(=O)N1OS(=O)(=O)O [Example 10, (S)-2-((((Z)-1-(2-Amino-5-chlorothiazol-4-yl)-2-(((S)-2,2-dimethyl-4-oxo-1-(sulfooxy)azetidin-3-yl)amino)-2-oxoethylidene)amino)oxy)-3-(4-(N—((R)-pyrrolidin-3-yl)carbamimidoyl)phenoxy)propanoic acid]	8	8	4	2	0.25	1	1	1	2	2
